Structures can show the parent of a compound that is named as a salt.

Sequence of (recombinant) catalytic domain of human Bub1 (amino acids 704-1085) (O43683 704-1085): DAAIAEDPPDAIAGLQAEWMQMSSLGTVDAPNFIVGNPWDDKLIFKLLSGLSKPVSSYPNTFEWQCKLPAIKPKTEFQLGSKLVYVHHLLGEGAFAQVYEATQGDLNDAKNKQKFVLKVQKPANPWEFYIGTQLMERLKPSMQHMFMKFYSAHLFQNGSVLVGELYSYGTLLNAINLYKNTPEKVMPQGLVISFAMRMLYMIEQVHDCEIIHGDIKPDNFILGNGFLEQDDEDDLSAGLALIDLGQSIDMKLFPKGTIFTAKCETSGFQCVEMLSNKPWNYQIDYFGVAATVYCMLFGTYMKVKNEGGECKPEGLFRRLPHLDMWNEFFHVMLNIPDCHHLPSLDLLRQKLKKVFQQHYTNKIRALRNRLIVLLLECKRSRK

The experiment deals with (recombinant) catalytic domain of human Bub1 (amino acids 704-1085) (Homo sapiens (Human), UniProt O43683). The experiment can be described thus: Bub1 kinase assay (TR-FRET). The format is biochemical. The following applies: ATP 10 μM final, peptide substrate 1 μM final, 60 min at 22° C., read-out: Biological Assay: Bub1 kinase assay median IC50. In outline:
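Compounds were serially diluted 1:3.4 from 2 mM DMSO stocks and incubated with the enzyme reaction for 60 min at 22° C. The reaction was stopped with EDTA, and biotinylated peptide phosphorylation was read by TR-FRET using Eu anti-mouse IgG, anti-phosphoserine antibody and streptavidin-XL665. IC50 was fitted by 4-parameter logistic to inhibition normalized to no-inhibitor and no-enzyme controls.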
In general terms: In TR-FRET formats the signal depends on donor and acceptor labels being close together.
Usually IC50 stands for the midpoint of a concentration-inhibition curve. On to `O=C1CCCc2[nH]c(-c3ccnc(NC(=O)C4CC4)c3)c(Nc3ccc(F)cc3)c21` [Example 314, N-(4-{3-[(4-fluorophenyl)amino]-4-oxo-4,5,6,7-tetrahydro-1H-indol-2-yl}pyridin-2-yl)cyclopropanecarboxamide], for which the IC50 was 47.5 nM.
With `CC(C)NC(=O)Nc1cc(-c2[nH]c3c(c2Nc2ccccc2)C(=O)CCC3)ccn1` [Example 378, 1-{4-[4-oxo-3-(phenylamino)-4,5,6,7-tetrahydro-1H-indol-2-yl]pyridin-2-yl}-3-propan-2-ylurea] the figure was 64.5 nM; with `CSc1cnccc1-c1[nH]c2c(c1Nc1ccccc1)C(=O)CC(C)(C)C2` [Example 201, 6,6-dimethyl-2-[3-(methylsulfanyl)pyridin-4-yl]-3-(phenylamino)-1,5,6,7-tetrahydro-4H-indol-4-one], 47.4 nM; with `Cc1ccc(Nc2c(-c3ccncc3)[nH]c3c2C(=O)CC(C)(C)C3)cc1Cl` [Example 92, 3-[(3-chloro-4-methylphenyl)amino]-6,6-dimethyl-2-(pyridin-4-yl)-1,5,6,7-tetrahydro-4H-indol-4-one], 296 nM.
Take `O=C(Nc1cc(-c2[nH]c3c(c2Nc2ccccc2)C(=O)CCC3)ccn1)c1nnn[nH]1` [Example 283, N-{4-[4-oxo-3-(phenylamino)-4,5,6,7-tetrahydro-1H-indol-2-yl]pyridin-2-yl}-1H-tetrazole-5-carboxamide]: the IC50 stood at 18.9 nM.
To `CN(CC(=O)Nc1cc(-c2[nH]c3c(c2Nc2ccccc2)C(=O)CCC3)ccn1)C(=O)OC(C)(C)C` [Example 297, tert-butyl methyl[2-oxo-2-({4-[4-oxo-3-(phenylamino)-4,5,6,7-tetrahydro-1H-indol-2-yl]pyridin-2-yl}amino)ethyl]carbamate] belongs 271 nM.
For `Cc1cnc(COCC(=O)Nc2cc(-c3[nH]c4c(c3Nc3ccccc3)C(=O)CCC4)ccn2)o1` [Example 355, 2-[(5-methyl-1,3-oxazol-2-yl)methoxy]-N-{4-[4-oxo-3-(phenylamino)-4,5,6,7-tetrahydro-1H-indol-2-yl]pyridin-2-yl}acetamide], the IC50 amounted to 6.45 nM.
To `CC1(C)CC(=O)c2c([nH]c(-c3cc(Cl)ncc3Cl)c2Nc2ccccc2)C1` [Example 215, 2-(2,5-dichloropyridin-4-yl)-6,6-dimethyl-3-(phenylamino)-1,5,6,7-tetrahydro-4H-indol-4-one] belongs 9680 nM.
As to `CC(C)C(=O)Nc1cc(-c2[nH]c3c(c2Nc2ccccc2)C(=O)CCC3)ccn1` [Example 230, 2-methyl-N-{4-[4-oxo-3-(phenylamino)-4,5,6,7-tetrahydro-1H-indol-2-yl]pyridin-2-yl}propanamide], the IC50 came to 20 nM.
With `CC1(C)CC(=O)c2c(Nc3ccccc3)c(-c3ccncc3)n(CC(N)=O)c2C1` [Example 185, 2-[3-anilino-6,6-dimethyl-4-oxo-2-(pyridin-4-yl)-4,5,6,7-tetrahydro-1H-indol-1-yl]acetamide formic acid salt] the figure was 1300 nM.
For `CC1(C)CC(=O)c2c([nH]c(-c3ccncc3)c2Nc2cccc(C(N)=O)c2)C1` [Example 101, 3-{[6,6-dimethyl-4-oxo-2-(pyridin-4-yl)-4,5,6,7-tetrahydro-1H-indol-3-yl]amino}benzamide], the IC50 came to 507 nM.
For the molecule `CC1(C)CC(=O)c2c([nH]c(-c3ccncc3)c2Nc2ccccc2)C1` [Example 1, 6,6-dimethyl-3-(phenylamino)-2-(pyridin-4-yl)-1,5,6,7-tetrahydro-4H-indol-4-one], the IC50 is 6.25 nM.
With `O=C1CCCc2[nH]c(-c3ccnc(NCc4cccnc4)c3)c(Nc3ccccc3)c21` [Example 372, 3-(phenylamino)-2-{2-[(pyridin-3-ylmethyl)amino]pyridin-4-yl}-1,5,6,7-tetrahydro-4H-indol-4-one], the IC50 is 9530 nM.
To `O=C1CCCc2[nH]c(-c3ccncc3)c(Nc3ccccn3)c21` [Example 503, 2-(pyridin-4-yl)-3-(pyridin-2-ylamino)-1,5,6,7-tetrahydro-4H-indol-4-one] belongs 36.1 nM; to `O=C1CCCc2[nH]c(-c3ccncc3Br)c(Nc3ccccc3)c21` [Example 196, 2-(3-bromopyridin-4-yl)-3-(phenylamino)-1,5,6,7-tetrahydro-4H-indol-4-one], 36.5 nM; to `O=C(Nc1cc(-c2[nH]c3c(c2Nc2ccccc2)C(=O)CC2(CC2)C3)ccn1)c1cocn1` [Example 470, N-{4-[4′-oxo-3′-(phenylamino)-1′,4′,5′,7′-tetrahydrospiro[cyclopropane-1,6′-indol]-2′-yl]pyridin-2-yl}-1,3-oxazole-4-carboxamide], 4.49 nM.
Regarding `CC1(C)CC(=O)c2c([nH]c(-c3ccnc(NC(=O)[C@H]4C[C@H]4F)c3)c2Nc2ccccc2)C1` (racemic) [Example 257, (R,R)—N-{4-[6,6-dimethyl-4-oxo-3-(phenylamino)-4,5,6,7-tetrahydro-1H-indol-2-yl]pyridin-2-yl}-2-fluorocyclopropanecarboxamide], the IC50 came to 59.7 nM.
With `O=C1CCCc2[nH]c(-c3ccnc(NC(=S)NCC4CC4)c3)c(Nc3ccccc3)c21` [Example 398, 1-(cyclopropylmethyl)-3-{4-[4-oxo-3-(phenylamino)-4,5,6,7-tetrahydro-1H-indol-2-yl]pyridin-2-yl}thiourea] the figure was 552 nM; with `O=C(Cc1ccc[nH]1)Nc1cc(-c2[nH]c3c(c2Nc2ccccc2)C(=O)CCC3)ccn1` [Example 284, N-{4-[4-oxo-3-(phenylamino)-4,5,6,7-tetrahydro-1H-indol-2-yl]pyridin-2-yl}-2-(1H-pyrrol-2-yl)acetamide], 13.7 nM; with `O=C1CCCc2[nH]c(-c3ccnc(NC(=O)C4CC4)c3)c(Nc3ccccc3)c21` [Example 48, N-{4-[4-oxo-3-(phenylamino)-4,5,6,7-tetrahydro-1H-indol-2-yl]pyridin-2-yl}cyclopropanecarboxamide], 13.5 nM.
For `O=C1CC2(CC2)Cc2[nH]c(-c3ccncc3)c(Nc3ccccc3)c21` [Example 37, 3′-(phenylamino)-2′-(pyridin-4-yl)-1′,7′-dihydrospiro[cyclopropane-1,6′-indol]-4′(5′H)-one], the half-maximal inhibitory concentration (IC50) came out at 8.5 nM.
With `O=C(Nc1cc(-c2[nH]c3c(c2Nc2ccccc2)C(=O)CCC3)ccn1)c1cnn[nH]1` [Example 281, N-{4-[4-oxo-3-(phenylamino)-4,5,6,7-tetrahydro-1H-indol-2-yl]pyridin-2-yl}-1H-1,2,3-triazole-5-carboxamide] the figure was 11.2 nM.
With `COC(=O)CCn1c2c(c(Nc3ccccc3)c1-c1ccncc1)C(=O)CCC2` [Example 172, methyl 3-[4-oxo-3-(phenylamino)-2-(pyridin-4-yl)-4,5,6,7-tetrahydro-1H-indol-1-yl]propanoate] the figure was 1050 nM; with `CC1(C)CC(=O)c2c([nH]c(-c3ccnnc3)c2Nc2ccccc2)C1` [Example 55, 6,6-dimethyl-3-(phenylamino)-2-(pyridazin-4-yl)-1,5,6,7-tetrahydro-4H-indol-4-one], 449 nM.
With `O=C(NCCCl)Nc1cc(-c2[nH]c3c(c2Nc2ccccc2)C(=O)CCC3)ccn1` [Example 388, 1-(2-chloroethyl)-3-{4-[4-oxo-3-(phenylamino)-4,5,6,7-tetrahydro-1H-indol-2-yl]pyridin-2-yl}urea] the figure was 43.4 nM.
